This is an account of results in patent US11186583B2, “5-alkylthio-7-[(4-arylbenzyl)amino]-1(2)H-pyrazolo[4,3-d]pyrimidines for treatment of lymphoma” (UNIVERZITA PALACKEHO V OLOMOUCI, priority 2018, dated 2021).

The target of one experiment is T1, CDK4/Cyclin D1 (Homo sapiens, UniProt P11802).
T1 construct: purchased ProQinase GmbH
Description: CDK4/Cyclin D1 kinase inhibition, [γ-33P]ATP, […] peptide. It counts as biochemical. The note with it: CDK panel, tested at least in duplicates. As for the experimental part: (§1) CDK2/Cyclin E and CDK1/Cyclin B kinases were produced in Sf9 insect cells via baculoviral infection and purified on a Ni-NTA column (Qiagen). CDK4/Cyclin D1, CDK5/p35NCK, CDK7/Cyclin H/MAT1 and CDK9/Cyclin T1 were purchased from ProQinase GmbH. The kinases were assayed with 1 mg/mL histone H1 (for CDK1/2/5) or (YSPTSPS)2 KK peptide (for CDK7/CDK9) or […] peptide (for CDK4) in the presence of […] (for CDK1/2/4/5/7/9), 0.05 mCi [γ-33P]ATP and of the test compound in a final volume of […], all in a reaction buffer (60 mM HEPES, NaOH, pH 7.5, 3 mM MgCl2, 3 mM MnCl2, 3 mM Na-orthovanadate, 1.2 mM DTT, 2.5 mg/50 ml PEG20.000). The reactions were stopped by adding […] of 3% aq. H3PO4. Aliquots were spotted onto P-81 phosphocellulose (Whatman), washed 3 times with 0.5% aq. H3PO4 and finally air-dried. Kinase inhibition was quantified using a FLA-7000 digital image analyzer (Fujifilm). The concentration of the test compounds required to decrease the CDK activity by 50% was determined from dose response curves and designated as IC50.

A further experiment concerns the target T2, CDK9/Cyclin T1 (Homo sapiens, UniProt P50750).
T2 construct: purchased ProQinase GmbH
Description: CDK9/Cyclin T1 kinase inhibition, [γ-33P]ATP, (YSPTSPS)2 KK peptide. It counts as biochemical. The settings on record: CDK panel, tested at least in duplicates. As for the experimental part:
as §1

In experiment [1] the test system is HT (diffuse large B-cell lymphoma, subtype—germinal center B-cell). Description: MTT cytotoxicity assay, HT lymphoma cell line. The note with it: Homo sapiens, 72 h, HT cells, three days, read-out: Lymphoma cell lines GI50, HT. It counts as cell-based. The text has this: (§2) Cytotoxicity of the compounds is the major property determining their anti-lymphoma efficacy in vitro. One of the parameters used, as the basis for cytotoxicity assays, is the metabolic activity of viable cells. For example 2, a microtiter assay, which uses (3-(4,5-dimethylthiazol-2-yl)-2,5-diphenyltetrazolium bromide (MTT), is widely used to quantitate cell proliferation and cytotoxicity. This assay is widely used in drug screening programs and in chemosensitivity testing. Because only metabolically active living cells reduce MTT to correspond purple formazan dye, these assays detect viable cells exclusively. The quantity of reduced MTT corresponds to the number of vital cells in the culture.
(§3) The compounds were assayed using the following lymphoma cell lines: HT (diffuse large B-cell lymphoma, subtype—germinal center B-cell), OCI-LY2 (diffuse large B-cell lymphoma, subtype—germinal center B-cell), MINO (mantle cell lymphoma). All cell lines were grown in RPMI medium supplemented with fetal bovine serum and glutamine and maintained at 37° C. in a humidified atmosphere with 5% CO2. For cytotoxicity assays, 5000-10000 cells were seeded into each well of 96 well plate, allowed to stabilize for at least 8 h and then tested compounds were added at various concentrations ranging from 100 to 0.01 μM in triplicates. After three days, MTT solution (5 mg/ml; Sigma, St. Louis, USA) was added to cells and medium was replaced with DMSO after five hours. The absorbance was measured at 620 nm by employing a microplate reader. MTT assays were repeated 3 times for each drug application and untreated cells were used as reference. The GI50 values, drug concentrations lethal to 50% of the cells, were calculated from the obtained dose response curves.

A further experiment has as its target T3, CDK2/Cyclin E (Homo sapiens, UniProt P24941).
T3 construct: made in house; host or cells: Sf9 insect cells (baculovirus)
The experiment in a line: CDK2/Cyclin E kinase inhibition, [γ-33P]ATP, histone H1. It counts as biochemical. The note with it: Table 3; read-out: Enzyme inhibition IC50 CDK2/E. The protocol:
CDK2/Cyclin E and CDK1/Cyclin B kinases were produced in Sf9 insect cells via baculoviral infection and purified on a Ni-NTA column (Qiagen). CDK4/Cyclin D1, CDK5/p35NCK, CDK7/Cyclin H/MAT1 and CDK9/Cyclin T1 were purchased from ProQinase GmbH. […] The reactions were stopped by adding 5 mL of 3% aq. H3PO4. Aliquots were spotted onto P-81 phosphocellulose (Whatman), washed 3 times with 0.5% aq. H3PO4 and finally air-dried. Kinase inhibition was quantified using a FLA-7000 digital image analyzer (Fujifilm). The concentration of the test compounds required to decrease the CDK activity by 50% was determined from dose response curves and designated as IC50.

Experiment [2] has as its system OCI-LY2 (diffuse large B-cell lymphoma, subtype—germinal center B-cell). The experiment in a line: MTT cytotoxicity assay, OCI-LY2 lymphoma cell line. It counts as cell-based. The note with it: 72 h, OCI-LY2 cells, three days, read-out: Lymphoma cell lines GI50, OCI-LY2.
Source text: as §2, §3
In general terms: Formazan colour is commonly taken as a measure of viable cells.

In experiment [3] the test system is MINO (mantle cell lymphoma). The experiment in a line: MTT cytotoxicity assay, MINO lymphoma cell line. It counts as cell-based. The settings on record: Homo sapiens, 72 h, MINO cells, three days, read-out: Lymphoma cell lines GI50, MINO.
Source text: as §2, §3

T1 sequence (P11802 whole entry): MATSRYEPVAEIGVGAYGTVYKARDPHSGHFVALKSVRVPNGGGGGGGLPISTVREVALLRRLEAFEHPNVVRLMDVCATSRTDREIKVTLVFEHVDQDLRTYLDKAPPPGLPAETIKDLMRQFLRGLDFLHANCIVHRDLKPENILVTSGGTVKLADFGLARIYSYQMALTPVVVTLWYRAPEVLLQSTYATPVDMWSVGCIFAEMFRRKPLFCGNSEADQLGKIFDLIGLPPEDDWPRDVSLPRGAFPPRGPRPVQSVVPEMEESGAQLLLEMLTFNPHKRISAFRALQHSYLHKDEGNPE
T1 sequence (P24385 whole entry partner): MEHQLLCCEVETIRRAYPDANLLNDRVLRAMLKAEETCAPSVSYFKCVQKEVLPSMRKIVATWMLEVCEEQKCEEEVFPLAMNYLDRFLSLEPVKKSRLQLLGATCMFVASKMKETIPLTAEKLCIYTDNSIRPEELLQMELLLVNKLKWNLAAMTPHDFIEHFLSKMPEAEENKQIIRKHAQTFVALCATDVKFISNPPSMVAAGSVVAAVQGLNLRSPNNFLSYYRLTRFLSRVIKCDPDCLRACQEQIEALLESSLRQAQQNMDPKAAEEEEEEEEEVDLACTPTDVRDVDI
T2 sequence (P50750 whole entry): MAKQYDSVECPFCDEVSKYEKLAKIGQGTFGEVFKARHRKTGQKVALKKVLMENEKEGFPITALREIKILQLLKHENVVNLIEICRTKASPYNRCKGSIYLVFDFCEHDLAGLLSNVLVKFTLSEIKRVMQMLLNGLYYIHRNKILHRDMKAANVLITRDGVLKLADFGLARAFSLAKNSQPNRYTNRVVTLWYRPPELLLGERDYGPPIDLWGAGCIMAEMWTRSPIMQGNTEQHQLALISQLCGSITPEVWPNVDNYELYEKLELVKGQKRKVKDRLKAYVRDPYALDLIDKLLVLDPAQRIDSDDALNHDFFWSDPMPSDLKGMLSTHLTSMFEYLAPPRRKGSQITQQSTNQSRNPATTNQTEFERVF
T2 sequence (O60563 whole entry partner): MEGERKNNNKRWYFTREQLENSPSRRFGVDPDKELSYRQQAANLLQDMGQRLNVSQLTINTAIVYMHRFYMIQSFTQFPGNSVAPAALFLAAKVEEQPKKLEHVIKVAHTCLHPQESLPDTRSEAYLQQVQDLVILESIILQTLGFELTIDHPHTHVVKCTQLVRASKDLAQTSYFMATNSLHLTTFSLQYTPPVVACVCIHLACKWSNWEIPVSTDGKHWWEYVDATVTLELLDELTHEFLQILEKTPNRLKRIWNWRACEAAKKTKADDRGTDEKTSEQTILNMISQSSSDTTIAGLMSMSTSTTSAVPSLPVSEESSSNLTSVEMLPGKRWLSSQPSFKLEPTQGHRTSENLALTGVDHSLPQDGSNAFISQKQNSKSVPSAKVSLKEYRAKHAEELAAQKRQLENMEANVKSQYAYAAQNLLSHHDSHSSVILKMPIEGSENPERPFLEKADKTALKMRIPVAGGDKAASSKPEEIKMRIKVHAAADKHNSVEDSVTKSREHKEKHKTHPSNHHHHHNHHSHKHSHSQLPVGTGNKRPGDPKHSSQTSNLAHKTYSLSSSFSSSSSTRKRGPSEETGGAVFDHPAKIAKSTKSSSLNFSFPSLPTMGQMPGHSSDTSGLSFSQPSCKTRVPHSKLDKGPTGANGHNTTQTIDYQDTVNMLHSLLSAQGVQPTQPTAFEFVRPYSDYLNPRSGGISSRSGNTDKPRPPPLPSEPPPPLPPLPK

Consider `CC[C@@H](CO)Nc1nc(NCc2ccc(-c3ccccn3)cc2)c2ncn(C(C)C)c2n1` [CR8, (2S)-2-[[9-propan-2-yl-6-[(4-pyridine-2-ylphenyl)methylamino]purin-2-yl]amino]butan-1-ol], for which the IC50 was 26.1 µM at CDK4/Cyclin D1 and 0.272 ± 0.038 µM on CDK9/Cyclin T1.
Broadly, the GI50 is the concentration at which growth is held to half of that of the control. Consider `CC(C)c1n[nH]c2c(NCc3ccc(-c4ccccn4)cc3)nc(SC3OC(CO)C(O)C(O)C3O)nc12` [Compound 4.22, 5-β-D-Thioglucosid-3-isopropyl-7-[4-(2-pyridyl)benzyl]amino-1(2)H-pyrazolo[4,3-d]pyrimidine], for which the GI50 in experiment [1] came to 8.07 µM; in experiment [2], 25.2 µM; in experiment [3], 21.6 µM. Also, the IC50 at CDK2/Cyclin E stood at 0.363 µM.
